Experimental data as given in patent US20170049739A1, “PROSTACYCLIN COMPOUNDS, COMPOSITIONS AND METHODS OF USE THEREOF” (INSMED INCORPORATED, priority 2013, published 2017).

Legend:
[1] = Treprostinil alkyl ester conversion to treprostinil in dog lung tissue homogenate; assay type: in vitro ADME; conditions: 37° C., 200 nM, 10 mg/mL of protein, 4 hours
Procedure: (§1) Treprostinil alkyl ester conversion to treprostinil was also measured in the presence of rat, dog and monkey lung tissue homogenate at 37° C. Mere, data were calculated based on fit of exponential increase to the maximum (experiments performed in duplicate). The results of this study are provided below in Table 2A and FIG. 37. […] Both FIG. 37 experiments (left and right graphs) were performed in duplicate and the lines represent nonlinear exponential regression assuming 1 phase decay.

[2] = test system: CHO-K1 cells; experiment: CHO-K1 cell proliferation assay; conditions: unformulated alkyl esters, 0.195 μM-25 μM, 48 hour incubation
Procedure: CHG-K1 cells were harvested when the cell monolayer was 50-90% confluent (use passage 4-11). Media was aspirated out of the flask, and cells were rinsed with 2 mL of F12 media. Next, 1 mL of pre-warmed (37° C.) 0.25%o trypsin-EDTA (Life Technologies, Cat#: 25300054) was added, and cells were dislodged from the flask by tapping it on the side. Complete growth media (F12 (Life Technologies, Cat #: 31765092) +10%FBS (Hyclone, Cat #: SH30071.03)+1× Pen-Strep (Life Technologies, cat #15140-122) was then added at a volume of 10 mL. Cells were eentrifuged at 250×g for 5 minutes at room temperature, and the media was aspirated. The cell pellet was resuspended in 10 ml. complete growth media. Cell number was determined using a hemacytometer. Ceils were then seeded at 2000 cells per well of a 96-well plate in 100 μL of complete growth media. The plate was incubated overnight at 37° C. and 5% CO2 in a water-jacketed incubator.
The next day, 80 μL of fresh complete media was added to each well, and CHO—K1 cells were challenged with treprostinil compound and composition treatments. The working solutions were prepared at 10× concentration, and following 2 fold serial dilutions, 20 μL aliquots were added per well to arrive at a final 1× concentration. Following a 48 hour incubation at 37° C. and 5% CO2 in a water-jacketed incubator, the inhibitory effect on cell proliferation was determined. Plates were analyzed using 20 μL of Presto Blue reagent (Life Technologies, cat #: A13262) per well. The reagent was mixed, and plates were incubated for 1 hour at 37° C. and 5% CO2 in a water-jacketed incubator. Plates were read using either a CytoFluor Series 4000 (PerSeptive BioSystems) or Synergy Neo microplate reader (BioTek) with emission λ: 590 nm and excitation λ: 560 nm.
Following a 48 hour incubation period, the inhibitory effect of the treprostinil derivative compositions on cell proliferation was determined.
CHO—K1 cells were challenged with treprostinil alkyl esters, i.e., TR compounds of Formula (A), having the following R2 groups: • C2, C3, C4, C5, C6, C8, C10 or C12 straight chain alkyl, at dosages ranging from 0.098 μM to 25 μM, Following a 48 hour incubation period, the inhibitory effect on cell proliferation was determined.
Following a 72 hour incubation period, the inhibitory effect on cell proliferation was determined. Following a 48 hour incubation period, the inhibitory effect on cell proliferation was determined.
Similarly, CHG-K1 cells were challenged with the treprostinil compositions T612 (R2═C2), T613 (R2═C8) at concentrations ranging from 1.41 μM to 180 μM.

[3] = Treprostinil alkyl ester conversion to treprostinil in rat lung tissue homogenate; assay type: in vitro ADME; conditions: 37° C., 200 nM, 10 mg/mL of protein, 4 hours
Procedure: as §1

[4] = Treprostinil alkyl ester conversion to treprostinil in monkey lung tissue homogenate; assay type: in vitro ADME; conditions: 37° C., 200 nM, 10 mg/mL of protein, 4 hours
Procedure: as §1

[5] = test system: NR8383 cells; experiment: NR8383 cell proliferation assay; assay type: cell-based, rat; conditions: unformulated alkyl esters, 0.195 μM-25 μM, 72 hour incubation
Procedure: Rat alveolar NR8383 cells were harvested when the monolayer was 50-90% confluent (use passage 5-11). Because the NR8383 cells include both adherent and non-adherent cells, media was transferred to a 50 mL Falcon tube. To obtain the cells remaining in the flask, 2 mL of plain media was added, and the remaining cells were scraped out of the 75 cm^2 flask with a cell scraper and added to the 50 mL tube. […] SH30071.03) […] Technologies, cat #: 15410-122)). Cell number was determined using a hemacytometer. […] Measurements and calculations were made as described above for the CHO-K1 cells.

Rate of treprostinil alkyl ester conversion [1]: 2.2 nmOL/h * g of protein
Rate of treprostinil alkyl ester conversion [3]: 1.1 nmOL/h * g of protein
Rate of treprostinil alkyl ester conversion [4]: 0.6 nmOL/h * g of protein
SMILES: CCCCCCCCCCCCOC(=O)COc1cccc2c1C[C@H]1C[C@@H](O)[C@H](CC[C@@H](O)CCCCC)[C@H]1C2 [C12-TR, dodecyl-treprostinil]
Effect on cell proliferation: concentration with detectable inhibition [2]: No detectable cell inhibition
Effect on cell proliferation [5]: No detectable cell inhibition
